According to patent US12053454B2, “Compositions for cryopreservation and methods of use thereof” (EVERGREEN BIOSCIENCES, priority 2017, dated 2024):

Columns and labels:
[1] = test system: primary mouse cortical neuron cells; assay: Viability after freeze/thaw in solutions comprising different necrostatins; assay type: cell-based; conditions: necrostatin 20 nM with other components of the soln unchanged; vs vehicle cryopreserved with 10% DMSO
Excerpt: Several analogs of necrostatins were studied and found to work similarly in their cryoprotective effect after freeze/thaw.

[2] = test system: stem cells (motor neuron precursors); assay: Motor neuron identity (CHAT1) after freezing of stem cells; assay type: cell-based; conditions: frozen in solutions comprising 0.01 μM cyspA, or 20 nM Nec1, or 5 nM iMAC2; vs frozen in the absence of these compounds
Excerpt: Cellular freeze/thaw cycle causes stem cells to lose their identity, as measured by the level of CHAT1 in motor neurons. […] As shown here (FIG. 3), each of cyspA, Nec1, and IMAC2 provided cryoprotection to stem cells upon freezing, maintaining cellular characteristics. Cryoprotectants in solution used to freeze the cells, maintained motor neuron identity, as measure by the level of CHAT1.

Row | Structure (SMILES) | percent viability [1] | CHAT1 levels [2]
1 | COc1ccc2c(c1)C1=NN(C(C)=O)C(c3ccc(F)cc3)C1CC2 (centres unmarked) [Nec3] | significantly enhanced percent viability | 
2 | Cl.Cl.OC(CN1CCNCC1)Cn1c2ccc(Br)cc2c2cc(Br)ccc21 (centres unmarked) [iMAC2, 3,6-Dibromo-a-(1-piperazinylmethyl)-9H-carbazole-9-ethanol dihydrochloride] |  | maintained CHAT1 levels
